ChEMBL document CHEMBL1201862, “PubChem BioAssay data set” (2004)
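Results reflect a 48-hour exposure of cells in 96-well plates to compound at five concentrations. Abbreviation: GI50, concentration required for 50% inhibition of growth.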 Activity calls are given as the source filed them. No stated cut-off is given here; in the data, active = GI50 up to about 1.1 µM and inactive = higher.

Columns and labels:
Assay in all cases: inhibition of tumour cell growth, NCI panel, 48 h
M14 = system: M14
BT-549 = system: BT-549
SK-MEL-5 = system: SK-MEL-5
OVCAR-4 = system: OVCAR-4
SR = system: SR
SN12C = system: SN12C
786-0 = system: 786-0
A549 = system: A549
MDA-MB-435 = system: MDA-MB-435
IGROV-1 = system: IGROV-1
OVCAR-5 = system: OVCAR-5
SNB-75 = system: SNB-75
COLO 205 = system: COLO 205
UO-31 = system: UO-31
Malme-3M = system: Malme-3M
MDA-N = system: MDA-N
MDA-MB-231 = system: MDA-MB-231
HT-29 = system: HT-29
UACC-62 = system: UACC-62
NCI-H226 = system: NCI-H226

Measured: GI50

OC1(c2ccc(Cl)cc2)c2c(c3ccccc3c3ccccc23)C2=NCCN21 (stereo not given)
inactive: M14 11.4 µM | BT-549 16.5 µM | SK-MEL-5 29 µM | OVCAR-4 3.43 µM | SR 4.42 µM | SN12C 16.3 µM | 786-0 4.02 µM | A549 9.14 µM | MDA-MB-435 29.7 µM | IGROV-1 3.96 µM | OVCAR-5 17 µM | SNB-75 2.91 µM | COLO 205 28.2 µM | UO-31 10.7 µM | Malme-3M 16.5 µM | MDA-N 19.8 µM | MDA-MB-231 12 µM | HT-29 14.6 µM | UACC-62 15.9 µM

COC(=O)C1c2c(c3ccccc3n2C(=O)OC)CCN2CCC1C(S(=O)(=O)c1ccccc1)C2=O (stereo not given)
inactive: M14 > 100 µM | BT-549 > 100 µM | SK-MEL-5 > 100 µM | SR 87.7 µM | SN12C > 100 µM | 786-0 > 100 µM | A549 > 100 µM | MDA-MB-435 > 100 µM | NCI-H226 24 µM | IGROV-1 > 100 µM | OVCAR-5 > 100 µM | SNB-75 > 100 µM | COLO 205 > 100 µM | UO-31 > 100 µM | Malme-3M > 100 µM | MDA-N > 100 µM | MDA-MB-231 > 100 µM | HT-29 > 100 µM | UACC-62 > 100 µM

O=[N+]([O-])c1ccc(C(=S)Nc2ccccc2)o1
inactive: M14 4.94 µM | BT-549 4.76 µM | SK-MEL-5 10.9 µM | OVCAR-4 2.43 µM | SR 1.79 µM | SN12C 2.42 µM | 786-0 2.07 µM | A549 6.55 µM | MDA-MB-435 2.58 µM | IGROV-1 6.1 µM | OVCAR-5 4.54 µM | SNB-75 7.67 µM | UO-31 2.32 µM | Malme-3M 2.91 µM | MDA-N 2.96 µM | MDA-MB-231 2.74 µM | HT-29 1.85 µM | UACC-62 3.46 µM

COC(=O)C(/C(=N/N)C(=O)Nc1cccc(O)c1)c1nc2ccccc2nc1O (stereo not given)
inactive: M14 > 100 µM | BT-549 > 100 µM | SK-MEL-5 > 100 µM | OVCAR-4 > 100 µM | SR > 100 µM | SN12C > 100 µM | 786-0 > 100 µM | A549 > 100 µM | MDA-MB-435 > 100 µM | NCI-H226 > 100 µM | IGROV-1 > 100 µM | OVCAR-5 > 100 µM | SNB-75 > 100 µM | UO-31 > 100 µM | MDA-N > 100 µM | MDA-MB-231 > 100 µM | HT-29 > 100 µM | UACC-62 > 100 µM

O=c1cnn(C/C=C/CO)c(=O)[nH]1
inactive: M14 > 100 µM | BT-549 > 100 µM | SK-MEL-5 > 100 µM | SR > 100 µM | SN12C > 100 µM | A549 > 100 µM | MDA-MB-435 > 100 µM | NCI-H226 > 100 µM | IGROV-1 > 100 µM | OVCAR-5 > 100 µM | SNB-75 > 100 µM | COLO 205 > 100 µM | UO-31 > 100 µM | Malme-3M > 100 µM | MDA-N > 100 µM | MDA-MB-231 > 100 µM

COc1cc(C(=O)Nc2cc(C(N)=O)cc(OC)c2OC)cc(NC(=O)/C=C/c2ccccc2)c1OC
inactive: BT-549 > 100 µM | OVCAR-4 > 100 µM | SR 20.4 µM | SN12C 18.6 µM | A549 > 100 µM | MDA-MB-435 > 100 µM | IGROV-1 > 100 µM | OVCAR-5 > 100 µM | SNB-75 1.71 µM | COLO 205 > 100 µM | UO-31 > 100 µM | Malme-3M 2.63 µM | MDA-N > 100 µM | MDA-MB-231 20 µM | HT-29 > 100 µM | UACC-62 15.2 µM

CNc1cc(Cl)ccc1C(=O)N1CCC[C@H]1CO
inactive: M14 > 100 µM | BT-549 > 100 µM | SK-MEL-5 74.1 µM | OVCAR-4 29.2 µM | SN12C > 100 µM | 786-0 > 100 µM | A549 > 100 µM | MDA-MB-435 > 100 µM | NCI-H226 78.2 µM | IGROV-1 > 100 µM | OVCAR-5 > 100 µM | SNB-75 53.5 µM | COLO 205 > 100 µM | UO-31 > 100 µM | Malme-3M > 100 µM | MDA-N 97.1 µM | MDA-MB-231 > 100 µM | HT-29 > 100 µM | UACC-62 > 100 µM

COc1cc(/N=C(\N)N=C(N)N)c2ncccc2c1
inactive: M14 > 100 µM | BT-549 78.5 µM | SK-MEL-5 39.9 µM | OVCAR-4 > 100 µM | SN12C 62.1 µM | 786-0 64.6 µM | A549 > 100 µM | MDA-MB-435 > 100 µM | NCI-H226 18.7 µM | IGROV-1 > 100 µM | OVCAR-5 > 100 µM | SNB-75 60.4 µM | COLO 205 74.8 µM | UO-31 > 100 µM | Malme-3M 44.7 µM | MDA-N > 100 µM | MDA-MB-231 > 100 µM | HT-29 > 100 µM | UACC-62 > 100 µM

O=c1[nH]cnc2c1sc1nc3ccccc3n12
inactive: M14 > 100 µM | BT-549 > 100 µM | SK-MEL-5 > 100 µM | OVCAR-4 > 100 µM | 786-0 67.5 µM | A549 > 100 µM | MDA-MB-435 > 100 µM | NCI-H226 > 100 µM | IGROV-1 63.8 µM | OVCAR-5 > 100 µM | SNB-75 49.3 µM | COLO 205 > 100 µM | UO-31 42.3 µM | Malme-3M > 100 µM | MDA-N > 100 µM | MDA-MB-231 > 100 µM | HT-29 > 100 µM | UACC-62 30.5 µM

CC1(C)OC2OC(COC(=O)C=[N+]=[N-])C3OC(C)(C)OC3C2O1 (stereo not given)
inactive: BT-549 > 100 µM | SK-MEL-5 > 100 µM | OVCAR-4 > 100 µM | SR > 100 µM | SN12C > 100 µM | 786-0 > 100 µM | MDA-MB-435 > 100 µM | NCI-H226 > 100 µM | IGROV-1 > 100 µM | OVCAR-5 > 100 µM | COLO 205 > 100 µM | UO-31 > 100 µM | Malme-3M > 100 µM | MDA-N > 100 µM | MDA-MB-231 > 100 µM | HT-29 > 100 µM | UACC-62 > 100 µM

CCCCn1cnnc1NS(=O)(=O)c1cc(C)c(Cl)cc1SCC(=O)O
inactive: M14 > 10 µM | BT-549 > 10 µM | SK-MEL-5 > 10 µM | OVCAR-4 > 10 µM | SN12C > 10 µM | 786-0 > 10 µM | A549 > 10 µM | MDA-MB-435 > 10 µM | NCI-H226 > 10 µM | IGROV-1 > 10 µM | OVCAR-5 > 10 µM | SNB-75 > 10 µM | COLO 205 > 10 µM | UO-31 > 10 µM | Malme-3M > 10 µM | MDA-N > 10 µM | MDA-MB-231 > 10 µM | HT-29 > 10 µM | UACC-62 > 10 µM

CCOC(=O)CC1c2ccc(O)cc2OC(=O)C1c1ccc(N)cc1 (stereo not given)
inactive: M14 > 100 µM | BT-549 > 100 µM | SK-MEL-5 > 100 µM | SR > 100 µM | SN12C > 100 µM | 786-0 > 100 µM | A549 > 100 µM | MDA-MB-435 > 100 µM | NCI-H226 > 100 µM | IGROV-1 > 100 µM | SNB-75 84.9 µM | COLO 205 > 100 µM | UO-31 > 100 µM | Malme-3M > 100 µM | MDA-N > 100 µM | MDA-MB-231 > 100 µM | HT-29 > 100 µM | UACC-62 > 100 µM

CC(=O)O[C@H]1CC[C@@]2(C)C(=CC[C@@H]3[C@@H]2CC[C@]2(C)Nc4c(cnn4S(C)(=O)=O)C[C@@H]32)C1
inactive: M14 27.8 µM | BT-549 23.3 µM | SK-MEL-5 16.4 µM | SR 40.4 µM | SN12C > 100 µM | MDA-MB-435 46.8 µM | NCI-H226 35.2 µM | IGROV-1 97.1 µM | OVCAR-5 38.2 µM | SNB-75 69.3 µM | COLO 205 69 µM | UO-31 76.7 µM | Malme-3M > 100 µM | MDA-N 60.1 µM | MDA-MB-231 > 100 µM | HT-29 21.9 µM | UACC-62 47.3 µM

O=C(CCc1ccc(O)cc1)NCCc1cccc(OCc2ccccc2)c1
inactive: M14 17.8 µM | BT-549 16.7 µM | SK-MEL-5 17.4 µM | OVCAR-4 31.6 µM | SR 15.4 µM | SN12C 75.3 µM | 786-0 40.4 µM | A549 40.1 µM | MDA-MB-435 18.1 µM | NCI-H226 29 µM | IGROV-1 28.5 µM | OVCAR-5 43.5 µM | COLO 205 49.4 µM | UO-31 12.7 µM | Malme-3M 27.7 µM | MDA-N 25.1 µM | MDA-MB-231 29 µM | HT-29 19.5 µM | UACC-62 14.1 µM

Cc1cc(-c2ccc(C(=O)C(Cl)(Cl)Cl)[nH]2)on1
inactive: M14 35.5 µM | BT-549 33.3 µM | SK-MEL-5 32.8 µM | OVCAR-4 35.5 µM | SN12C 16.4 µM | 786-0 37 µM | A549 33.5 µM | MDA-MB-435 20.5 µM | NCI-H226 22.4 µM | OVCAR-5 22.6 µM | SNB-75 31.3 µM | COLO 205 86.7 µM | UO-31 22.3 µM | Malme-3M 73.1 µM | MDA-N 34.2 µM | MDA-MB-231 18 µM | HT-29 28.4 µM | UACC-62 28.2 µM
